Measured values reported in PubChem BioAssay (NCI).
Several values for one entry are separate records, joined by “and”; a condition that tells them apart may be missing. Equal entries are not always repeated.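 Cultured in 96-well plates, cells were exposed to test compound for 48 hours across five concentrations. Here, GI50 denotes the concentration required for 50% inhibition of growth. Definition used: TGI = concentration required for complete inhibition of growth.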 Where a SMILES comes first, the peptide text is derived from it. Bridges are numbered along the chain shown (N, C = ends).

Key:
Test in all cases: NCI-60 cell line screen, 48 h
HL-60(TB) leukemia = test system: HL-60(TB) leukemia
HT29 colon = test system: HT29 colon
786-0 renal = test system: 786-0 renal
SR leukemia = test system: SR leukemia
UACC-257 melanoma = test system: UACC-257 melanoma
KM12 colon = test system: KM12 colon
SK-MEL-2 melanoma = test system: SK-MEL-2 melanoma
UACC-62 melanoma = test system: UACC-62 melanoma
SNB-75 CNS = test system: SNB-75 CNS
DU-145 prostate = test system: DU-145 prostate

Row | SMILES | TGI (HL-60(TB) leukemia) | TGI (HT29 colon) | TGI (786-0 renal) | TGI (SR leukemia) | TGI (UACC-257 melanoma) | TGI (KM12 colon) | TGI (SK-MEL-2 melanoma) | TGI (UACC-62 melanoma) | TGI (SNB-75 CNS) | GI50 (HL-60(TB) leukemia) | GI50 (HT29 colon) | GI50 (786-0 renal) | GI50 (SR leukemia) | GI50 (UACC-257 melanoma) | GI50 (KM12 colon) | GI50 (UACC-62 melanoma) | GI50 (DU-145 prostate) | TGI (DU-145 prostate) | GI50 (SNB-75 CNS) | GI50 (SK-MEL-2 melanoma)
1 | CCCCCCCCCCCCCP(=O)(OC)OC | 32.9 µM | 34.1 µM | 33.7 µM | 38.4 µM | 33.7 µM | 31.9 µM | 31.3 µM | 32.2 µM | 38.1 µM | – | – | – | – | – | – | – | – | – | – | –
2 | COc1cc(C(=O)c2cnc(-c3ccc4cc[nH]c4c3)[nH]2)cc(OC)c1OC | 0.0535 µM | 0.108 µM | 2.34 µM | 23.8 µM | 17.4 µM | 2.16 µM | – | 13.8 µM | – | 0.0224 µM | 0.0316 µM | 0.0419 µM | 0.0302 µM | 2.03 µM | 0.0313 µM | 0.0244 µM | 0.0363 µM | 11.1 µM | – | –
3 | C=C1C(=O)O[C@H]2C3OC3(C)CC/C=C(/C(=O)OC)[C@@H](OC(C)=O)[C@H](OC(=O)C3(C)OC3C)[C@H]12 (stereo not given in full) | 477 nM and 655 nM and 0.679 µg/mL | 2.55 µM and 2.3 µM and 4.03 µg/mL | 3.73 µM and 8.4 µM and 3.45 µg/mL | 0.664 µM and 1.27 µM | 2.96 µM and 1.33 µM | 1.64 µM and 7.08 µg/mL | – | 3.01 µM and 3.64 µg/mL | 21.8 µM and 4.68 µg/mL | 154 nM and 0.285 µg/mL | 1.29 µM and 1.06 µM and 1.32 µg/mL | 1.65 µM and 362 nM and 1.26 µg/mL | 0.248 µM | 1.42 µM and 0.434 µM | 9.13 µM and 370 nM and 2.36 µg/mL | 1.59 µM and 1.66 µg/mL | – | 29 µM | 5.54 µM and 11.2 µM and 2.27 µg/mL | –
4 | CCOC(=O)Nc1cc2c(c(N)n1)N=C(c1ccccc1)CN2 | – | – | 25.9 µM | > 100 µM | 50.4 µM | 49 µM | – | – | 31 µM | – | < 0.0001 µM | < 0.0001 µM | – | – | < 0.0001 µM | – | < 0.0001 µM | – | – | –
5 | COc1ccccc1-c1ccc2c(N)c(C(=O)c3ccc4c(c3)OCO4)sc2n1 | > 100 µM | – | 11.3 µM | 31.1 µM | 22.7 µM | 23.3 µM | 10.9 µM | 18.6 µM | 15.6 µM | 4.83 µM | – | 2.78 µM | 2.99 µM | 6.1 µM | 4.46 µM | 4.12 µM | 15 µM | 42.6 µM | 3.27 µM | 3.38 µM
6 | C=C1CCCC2OC(OC)CCC12 (stereo not given) | > 100 µM | > 100 µM | > 100 µM | > 100 µM | > 100 µM | > 100 µM | > 100 µM | > 100 µM | > 100 µM | – | – | – | – | – | – | – | – | – | – | –
7 | O=C(CS(=O)c1nc2ccccc2nc1-c1ccccc1)Nc1ccc(Cl)cc1 (stereo not given) | – | > 100 µM | 71.7 µM | 47.6 µM | 77.3 µM | 55.2 µM | 65.5 µM | 40.7 µM | > 100 µM | – | 48.5 µM | 26.5 µM | 18.7 µM | 24.7 µM | 21.7 µM | 16 µM | 25.7 µM | > 100 µM | > 100 µM | 27.4 µM
8 | O=C(CO)CC(=O)C(=O)Nc1cccc(C(F)(F)F)c1 | > 100 µM | > 100 µM | > 100 µM | > 100 µM | > 100 µM | > 100 µM | > 100 µM | > 100 µM | > 100 µM | – | – | – | – | – | – | – | – | – | – | –
9 | CCc1cc2c(Nc3ccccc3)c3c(nc2s1)CCCC3 | > 100 µM | – | > 100 µM | 47.2 µM | > 100 µM | > 100 µM | > 100 µM | > 100 µM | 39.1 µM | – | – | – | – | – | – | – | – | – | – | –
10 | COc1ccc(C(=O)Nc2ccn(CCOC(=O)c3ccc(OC)cc3)c(=O)n2)cc1 | > 100 µM | > 100 µM | > 100 µM | > 100 µM | > 100 µM | > 100 µM | > 100 µM | > 100 µM | > 100 µM | – | – | – | – | – | – | – | – | – | – | –
11 | CCC(C)C1NC(=O)C(CC(C)C)NC(=O)C(C(C)C)NC(=O)C2CSSCC(NC1=O)C(=O)N2 (stereo not given) (cyclo(CCVLI); disulfide 1-2; configuration not given here) | 0.339 µM | 0.356 µM | 0.315 µM | – | 0.279 µM | 0.223 µM | 0.363 µM | 0.228 µM | 0.238 µM | – | – | – | – | – | – | – | – | 0.301 µM | – | –
12 | O=C(O)CC(S)C(=O)O.[Li+].[Sb] (stereo not given) | > 100 µM | > 100 µM | > 100 µM | > 100 µM | > 100 µM | > 100 µM | > 100 µM | > 100 µM | – | > 100 µM | 88.6 µM | > 100 µM | 32.9 µM | > 100 µM | > 100 µM | > 100 µM | > 100 µM | > 100 µM | – | 40.5 µM
13 | COc1ccc(C2CC(c3ccc4ccccc4c3)=NN2c2nc(O)c(C3=c4cc(Cl)ccc4=NC3=O)s2)cc1 (stereo not given) | – | 0.771 µM and 0.556 µM | – | < 0.005 µM | – | – | – | – | 0.0408 µM | 0.171 µM | 0.0307 µM and < 0.005 µM | 0.0231 µM and < 0.005 µM | 0.0338 µM and < 0.005 µM | – | 0.0236 µM and < 0.005 µM | 0.0296 µM and < 0.005 µM | 0.0331 µM and < 0.005 µM | 0.147 µM and 0.2 µM | 0.0171 µM | 0.0263 µM and < 0.005 µM
14 | CC(=O)OC(C)(C)C[N+](=O)[O-] | > 100 µM | > 100 µM | > 100 µM | > 100 µM | > 100 µM | > 100 µM | > 100 µM | – | > 100 µM | – | – | – | – | – | – | – | – | – | – | –
15 | CCOP(=O)(OCC)C(NC(c1ccccc1)c1ccccc1)c1ccsc1 (stereo not given) | 56.9 µM | – | 31.4 µM | 98.2 µM | – | 37.5 µM | > 100 µM | 25.5 µM | – | 23 µM | – | 17.2 µM | 23 µM | – | 16.7 µM | 12.8 µM | 19.1 µM | 35.5 µM | – | 43.4 µM
16 | CSc1nc(SC)c2c(C)c(Br)[nH]c2n1 | > 100 µM | > 100 µM | > 100 µM | > 100 µM | – | > 100 µM | > 100 µM | > 100 µM | > 100 µM | – | – | – | – | – | – | – | – | > 100 µM | – | –
17 | CC[C@@]1(O)C(=O)OCc2c1cc1n(c2=O)Cc2cc3cccc(N)c3nc2-1 | > 100 µM | > 100 µM | 8.72 µM | – | > 100 µM | > 100 µM | 65.6 µM | 31.7 µM | 16.1 µM | 3.52 µM | > 100 µM | 2.38 µM | 0.478 µM | > 100 µM | > 100 µM | 4.74 µM | – | – | 2.72 µM | 29.7 µM
